Results on 16 compounds are retold here after patent publication US6608178B1, “5-hydroxytryptophol (5-HTOL) derivatives, antibodies, immunoassays and detection of recent alcohol consumption” (Alco Dia A.B., priority 1996, dated 2003).

Where only a bound is given, the exact number is not on record here.

The test system of the first data set is mouse monoclonal anti-5-HTOL antibody. The experiment in a line: Cross reactivity in the competitive immunoassay (labelled conjugate IV vs. anti-5-HTOL antibody). Particulars: allowable maximal cross reactivity in urine for a 50 nM detection limit of T-5-G; the tested antibody complied with these criteria. Type of data set: binding. The protocol: Crossreactivity for various substances was measured in the immunoassay method described below with dilutions (in the diluent) of the tested substance used in stead of urine or standard. The concentration range tested for each substance covered three magnitudes and was up to or above one magnitude the highest noted literature value.
Diluent was 0.05 M sodium phosphate buffer, pH 7.0, containing 0.01 M EDTA, 0.1% Tween® and 1% BSA. Decanting solution was Pharmacia decanting suspension without added antibody suspension (Pharmacia Diagnostics AB). μ-agarose particles carried covalently bound sheep-anti-mouse antibody.
Assay Procedure: Pipette to a test tube 50 μl urine or standard, 50 μl tracer solution, 50 μl antibody solution (one of the above-mentioned six selected clones, 5 μg/ml), mix on shaker ˜600 rpm for ˜1 min, allow to stand for 1.5 h at room temperature, 50 μl of the sheep anti-mouse micro-agarose suspension (˜100 mg/ml), mix as above and let stand for another 0.5 h, then add 2 ml decanting solution, centrifuge 10 min at 3000 rpm, with tubes in Pharmacia decanting racks, in the JR-3.2 Rack Rotor, in a Beckman J-6B centrifuge. Within 5 min after completed centrifugation decant the supernatant and let tube racks stand inverted on absorbtive tissue for 2 min. Finally the remaining radioactivity in the tubes is measured in a gamma counter. A standard curve is made with T-5-G in the diluent at 10, 100, 1000 and 10000 nmol/L.
As for `O=S(=O)(O)Oc1c[nH]c2ccccc12` [indoxyl sulphate], the “Acceptable Crossreactivity” value is given as at most 0.002%. The same measure, in the same setting: then `N[C@@H](Cc1c[nH]c2ccccc12)C(=O)O` [tryptophan], with at most 0.6%; and `CC12CCC(=O)C=C1CCC1C2CCC2(C)C(OC3OC(C(=O)O)C(O)C(O)C3O)CCC12` [testosterone-β-D-glucuronide], with at most 50%; and `O=C(O)Cc1c[nH]c2ccc(O)cc12` [5-HIAA, 5-hydroxyindole-3-acetic acid], with at most 0.07%.

`O=Cc1c[nH]c2ccccc12` [indole-3-aldehyde]: the “Acceptable Crossreactivity” value is on record as at most 0.05%. On the same count and under the same terms, then `COc1ccc2[nH]cc(CCNC(C)=O)c2c1` [melatonin], with at most 50%. On the same count and under the same terms, the figure for `O=C(O)[C@H]1O[C@@H](Oc2ccc([N+](=O)[O-])cc2)[C@H](O)[C@@H](O)[C@@H]1O` [p-nitrophenyl-β-D-glucuronide] is at most 0.002%. On the same count and under the same terms, the figure for `N[C@@H](Cc1c[nH]c2ccc(O)cc12)C(=O)O` [5-hydroxytryptophan] is at most 0.1%. In the case of `COc1ccc2[nH]cc(CCN)c2c1` [5-methoxytryptamine], the “Acceptable Crossreactivity” value is at most 5%.

`COc1ccc2[nH]cc(CCO)c2c1` [5-methoxytryptophol]: the “Acceptable Crossreactivity” value is at most 5%.

Take `O=C(O)Cc1c[nH]c2ccccc12` [indolyl acetic acid]: the “Acceptable Crossreactivity” value is at most 0.07%. With `O=C(O)[C@H]1O[C@@H](Oc2c[nH]c3ccccc23)[C@H](O)[C@@H](O)[C@@H]1O` [indoxyl-β-D-glucuronide], the “Acceptable Crossreactivity” value is on record as at most 0.002%. The same measure, in the same setting: the figure for `C[C@]12CC[C@@H]3c4ccc(O[C@@H]5O[C@H](C(=O)O)[C@@H](O)[C@H](O)[C@H]5O)cc4CC[C@H]3[C@@H]1CCC2=O` [estrone-β-D-glucuronide] is at most 50%; for `NCCc1c[nH]c2ccccc12` [tryptamine] it is at most 6%; for `NCCc1c[nH]c2ccc(O)cc12` [serotonin, 5-hydroxytryptamine] it is at most 7%.

System in a further data set: not given
Assay: not given
Particulars: human urine; cited from earlier work.
`O=C(O)[C@H]1O[C@@H](Oc2ccc3[nH]cc(CCO)c3c2)[C@H](O)[C@@H](O)[C@@H]1O` [T-5-G, 3-(2-hydroxyethyl)indole-5-yl-O-β-D-glucopyranosiduronic acid]: the “Share of urinary 5-HTOL conjugated with glucuronic acid” value is 75-95%.
